Earlier results as cited in Sander's compilation of Henry's law constants.
Values joined by “and” are separate entries in the source; they are usually repeats but may differ in a detail not shown here. Equal values may be shown once. One block for each compound: values may come before it.

Experiment: Henry solubility constant Hcp at 298.15 K (mol/(m3 Pa))
Settings: cited value
[1] = reference: Burkholder et al. (2015)
[2] = reference: Burkholder et al. (2019)
[3] = reference: Fogg and Sangster (2003)
[4] = reference: Barcelo and Hennion (1997)
[5] = reference: Sander et al. (2011)
[6] = reference: Petrasek et al. (1983)

Compound: ClC(Cl)(Cl)C(Cl)(Cl)Cl [hexachloroethane]
Henry solubility constant Hcp (reference: Brockbank (2013)): 0.0028
Henry solubility constant Hcp [1]: 0.0026
Henry solubility constant Hcp [2]: 0.0027
Henry solubility constant Hcp (reference: Goldstein (1982)): 0.001

Compound: C1=Cc2cccc3cccc1c23 [acenaphthylene]
Henry solubility constant Hcp (reference: Brockbank (2013)): 0.085
Henry solubility constant Hcp [3]: 0.091

Compound: CC(C)OC(=O)Nc1cccc(Cl)c1 [chlorpropham]
Henry solubility constant Hcp [4]: 47

Compound: CNC(=O)Oc1cc(C)c(SC)c(C)c1 [methiocarb]
Henry solubility constant Hcp (reference: MacBean (2012b)): 8400

Compound: ClC=CCCl [1,3-dichloropropene]
Henry solubility constant Hcp [4]: 2.4e-05
Henry solubility constant Hcp (reference: Goldstein (1982)): 0.0028
Henry solubility constant Hcp (reference: Horvath and Getzen (1999)): 0.0028

Compound: CCOP(=S)(OCC)Oc1nc(Cl)c(Cl)cc1Cl [chlorpyrifos]
Henry solubility constant Hcp [4]: 0.0056
Henry solubility constant Hcp (reference: HSDB (2015)): 3.4
Henry solubility constant Hcp (reference: Muir et al. (2004)): 1.8 and 2.1

Compound: CNC(=O)Oc1ccccc1OC(C)C [propoxur]
Henry solubility constant Hcp [4]: 0.076

Compound: CCc1ccccc1N [2-ethylaniline]
Henry solubility constant Hcp (reference: Brockbank (2013)): 2.6

Compound: CCOC1Oc2ccc(OS(C)(=O)=O)cc2C1(C)C (stereo unspecified) [ethofumesate]
Henry solubility constant Hcp [4]: 45

Compound: O=C(O)C(Cl)(Cl)Cl [trichloroethanoic acid]
Henry solubility constant Hcp [1]: 730
Henry solubility constant Hcp [2]: 730
Henry solubility constant Hcp [5]: 730

Compound: CCCNCCC [dipropylamine]
Henry solubility constant Hcp (reference: Brockbank (2013)): 0.21
Henry solubility constant Hcp [1]: 0.2
Henry solubility constant Hcp [2]: 0.2

Compound: FC(F)OC(F)(F)C(F)Cl (stereo unspecified) [2-chloro-1,1,2-trifluoroethyl difluoromethyl ether]
Henry solubility constant Hcp [3]: 0.0003

Compound: Cc1ccc(O)c(C)c1 [1-hydroxy-2,4-dimethylbenzene]
Henry solubility constant Hcp (reference: Brockbank (2013)): 3.5
Henry solubility constant Hcp (reference: Goldstein (1982)): 4.1
Henry solubility constant Hcp (reference: Howard (1989)): 16
Henry solubility constant Hcp [6]: 17

Compound: c1ccc2c(c1)Cc1ccccc1-2 [2,3-benzindene]
Henry solubility constant Hcp (reference: Brockbank (2013)): 0.13
Henry solubility constant Hcp [3]: 0.11
Henry solubility constant Hcp (reference: Goldstein (1982)): 0.084
Henry solubility constant Hcp (reference: HSDB (2015)): 0.099
Henry solubility constant Hcp (reference: McCarty (1980)): 0.047

Compound: CS(=O)(=O)c1cc(C(F)(F)F)ccc1C(=O)c1cnoc1C1CC1 [isoxaflutole]
Henry solubility constant Hcp (reference: MacBean (2012b)): 53000

Compound: CCOP(=S)(OCC)Oc1cc(C)nc(C(C)C)n1 [diazinon]
Henry solubility constant Hcp [4]: 0.15
Henry solubility constant Hcp (reference: Muir et al. (2004)): 46 and 92

Compound: CCCCOC(C)=O [butyl ethanoate]
Henry solubility constant Hcp (reference: Brockbank (2013)): 0.038
Henry solubility constant Hcp (reference: Goldstein (1982)): 0.021

Compound: Brc1ccc(Br)c(Br)c1 [1,2,4-tribromobenzene]
Henry solubility constant Hcp (reference: Kuramochi et al. (2004)): 0.029

Compound: ClCc1ccccc1 [(chloromethyl)-benzene]
Henry solubility constant Hcp (reference: Brockbank (2013)): 0.022

Compound: FN(F)N(F)F [dinitrogen tetrafluoride]
Henry solubility constant Hcp [1]: 8.4e-06
Henry solubility constant Hcp [2]: 8.4e-06
Henry solubility constant Hcp [5]: 8.4e-06

Compound: CN [methanamine]
Henry solubility constant Hcp [1]: 0.89
Henry solubility constant Hcp [2]: 0.89

The remaining lines, values ahead:

Henry solubility constant Hcp (reference: Brockbank (2013)): 0.33
Compound: CCCCCC(C)O (stereo unspecified) [2-heptanol]

Henry solubility constant Hcp (reference: Brockbank (2013)): 0.039
Compound: C=CCN(CC=C)CC=C [N,N-di-2-propenyl-2-propen-1-amine]

Henry solubility constant Hcp (reference: Brockbank (2013)): 0.00021
Compound: C1=C\CCCCCC/1 [cyclooctene]

Henry solubility constant Hcp (reference: Brockbank (2013)): 0.0036
Henry solubility constant Hcp [3]: 0.0038
Henry solubility constant Hcp (reference: Goldstein (1982)): 0.0038
Compound: C=Cc1ccccc1 [ethenylbenzene]

Henry solubility constant Hcp (reference: Brockbank (2013)): 3.9
Compound: CCOC(=O)CC(=O)OCC [propanedioic acid, diethyl ester]

Henry solubility constant Hcp (reference: Palmer et al. (1985)): > 4.1
Compound: OI [hypoiodous acid]

Henry solubility constant Hcp [4]: 0.018
Compound: CCSC(=O)N(CC(C)C)CC(C)C [butylate]

Henry solubility constant Hcp (reference: Brockbank (2013)): 0.00029
Compound: C1=CCCCC1 [cyclohexene]

Henry solubility constant Hcp (reference: Brockbank (2013)): 0.011
Compound: CCCCCCCCC=O [nonanal]

Henry solubility constant Hcp (reference: Brockbank (2013)): 0.0015
Compound: Fc1ccccc1 [fluorobenzene]

Henry solubility constant Hcp (reference: Brockbank (2013)): 0.021
Henry solubility constant Hcp (reference: Goldstein (1982)): 0.024
Henry solubility constant Hcp (reference: Meynier et al. (2003)): 0.017
Compound: CC(=O)OCCC(C)C [3-methylbutyl ethanoate]

Henry solubility constant Hcp (reference: Brockbank (2013)): 0.0072
Compound: CCOC(C)(C)C [ethyl tert-butyl ether]

Henry solubility constant Hcp (reference: Brockbank (2013)): 0.018
Compound: CCCOC(=O)CCC [propyl butanoate]

Henry solubility constant Hcp [4]: 0.01
Compound: CCCN(CCC)C(=O)SCC [S-ethyl dipropylthiocarbamate]

Henry solubility constant Hcp (reference: Brockbank (2013)): 0.32
Compound: CCCCC(O)CC (stereo unspecified) [3-heptanol]

Henry solubility constant Hcp (reference: Goldstein (1982)): 9.8
Compound: O=[N+]([O-])c1ccc(O)cc1 [4-nitrophenol]

Henry solubility constant Hcp (reference: Brockbank (2013)): 0.00014
Compound: CCCCCCCCCc1ccccc1 [nonylbenzene]

Henry solubility constant Hcp (reference: Brockbank (2013)): 5.7e-05
Compound: CC=C(C)C [2-methyl-2-butene]

Henry solubility constant Hcp (reference: Brockbank (2013)): 2.6e-05
Compound: CC1CCCCC1 [methylcyclohexane]

Henry solubility constant Hcp (reference: Brockbank (2013)): 15
Henry solubility constant Hcp [6]: 6.6
Compound: c1ccc2c(c1)ccc1c3ccccc3ccc21 [chrysene]

Henry solubility constant Hcp (reference: Brockbank (2013)): 0.017
Compound: CCCCCOC=O [pentyl methanoate]
